Measured values as given in US9226916B2, “Pyrrolidine derivatives” (HOFFMANN-LA ROCHE INC., priority 2009, dated 2016).
pKi: −log10 of the molar value. Like-named read-outs stand apart in the source and are kept apart here.

Molecular target: T1, recombinant human NK3 receptor (Homo sapiens, UniProt P29371)
T1 construct: expressed in transfected cells; host or cells: HEK293 cells, transient expression; membranes
T1 sequence (P29371 1-465): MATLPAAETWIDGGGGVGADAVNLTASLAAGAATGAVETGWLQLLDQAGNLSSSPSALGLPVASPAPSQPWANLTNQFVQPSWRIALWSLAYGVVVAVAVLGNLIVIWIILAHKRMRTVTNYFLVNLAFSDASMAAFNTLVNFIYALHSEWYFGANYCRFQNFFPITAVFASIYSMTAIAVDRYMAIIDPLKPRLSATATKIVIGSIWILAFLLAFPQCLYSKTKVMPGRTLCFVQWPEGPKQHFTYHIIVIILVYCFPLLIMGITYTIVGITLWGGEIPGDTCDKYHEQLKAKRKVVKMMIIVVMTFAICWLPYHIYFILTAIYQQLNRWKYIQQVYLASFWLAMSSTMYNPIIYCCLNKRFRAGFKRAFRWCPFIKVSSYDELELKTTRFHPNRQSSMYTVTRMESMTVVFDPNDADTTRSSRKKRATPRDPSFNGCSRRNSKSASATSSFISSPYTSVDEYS
Assay: [3H]SR142801 competition binding assay

[1] = hNK-3 receptor affinity, membranes from HEK293 cells transiently expressing recombinant human NK3 receptor, [3H]SR142801, Cheng-Prussoff, read-out: Data Ki

pKi [1] | Structure (SMILES) | pKi
 | CN(C(=O)Oc1ccc(F)cc1)[C@H]1CN(C(=O)C2CCN(c3ccc(Cl)nn3)CC2)C[C@@H]1c1ccc(Cl)c(Cl)c1 (racemic) [Example 79, rac-[(3R,4S)-1-[1-(6-Chloro-pyridazin-3-yl)-piperidine-4-carbonyl]-4-(3,4-dichloro-phenyl)-pyrrolidin-3-yl]-methyl-carbamic acid 4-fluoro-phenyl ester] | 9.40
 | CN(C(=O)Oc1ccc(F)cc1)[C@H]1CN(C(=O)C2CCN(c3ccc(C#N)cn3)CC2)C[C@@H]1c1ccc(Cl)c(Cl)c1 (racemic) [Example 80, rac-[(3R,4S)-1-(5′-Cyano-3,4,5,6-tetrahydro-2H-[1,2′]bipyridinyl-4-carbonyl)-4-(3,4-dichloro-phenyl)-pyrrolidin-3-yl]-methyl-carbamic acid 4-fluoro-phenyl ester] | 9.52
 | CN(C(=O)OCCC(F)(F)C(F)(F)F)[C@H]1CN(C(=O)C2CCN(C(=O)C3(C)CC3)CC2)C[C@@H]1c1ccc(Cl)c(Cl)c1 (racemic) [Example 83, rac-{(3R,4S)-4-(3,4-Dichloro-phenyl)-1-[1-(1-methyl-cyclopropanecarbonyl)-piperidine-4-carbonyl]-pyrrolidin-3-yl}-methyl-carbamic acid 3,3,4,4,4-pentafluoro-butyl ester] | 8.38
 | CN(C(=O)OCC1CCOC1)[C@H]1CN(C(=O)C2CCN(C(=O)C3(C)CC3)CC2)C[C@@H]1c1ccc(Cl)c(Cl)c1 (mixture of isomers) [Example 85, rac-{(3R,4S)-4-(3,4-Dichloro-phenyl)-1-[1-(1-methyl-cyclopropanecarbonyl)-piperidine-4-carbonyl]-pyrrolidin-3-yl}-methyl-carbamic acid (S)-1-(tetrahydro-furan-3-yl)methyl ester and rac-{(3R,4S)-4-(3,4-Dichloro-phenyl)-1-[1-(1-methyl-cyclopropanecarbonyl)-piperidine-4-carbonyl]-pyrrolidin-3-yl}-methyl-carbamic acid (R)-1-(tetrahydro-furan-3-yl)methyl ester] | 8.04
 | CN(C(=O)OCCCC(F)(F)C(F)(F)F)[C@H]1CN(C(=O)C2CCN(C(=O)C3(C)CC3)CC2)C[C@@H]1c1ccc(Cl)c(Cl)c1 (racemic) [Example 88, rac-{(3R,4S)-4-(3,4-Dichloro-phenyl)-1-[1-(1-methyl-cyclopropanecarbonyl)-piperidine-4-carbonyl]-pyrrolidin-3-yl}-methyl-carbamic acid 4,4,5,5,5-pentafluoro-pentyl ester] | 8.08
8.36 | CN(C(=O)OCC1(C)CC1)[C@H]1CN(C(=O)C2CCN(C(=O)C3(C)CC3)CC2)C[C@@H]1c1ccc(Cl)c(Cl)c1 (racemic) [Example 91, rac-{(3R,4S)-4-(3,4-Dichloro-phenyl)-1-[1-(1-methyl-cyclopropanecarbonyl)-piperidine-4-carbonyl]-pyrrolidin-3-yl}-methyl-carbamic acid 1-methyl-cyclopropylmethyl ester] | 
 | CC1CC1COC(=O)N(C)[C@H]1CN(C(=O)C2CCN(C(=O)C3(C)CC3)CC2)C[C@@H]1c1ccc(Cl)c(Cl)c1 (mixture of isomers) [Example 92, rac-{(3R,4S)-4-(3,4-Dichloro-phenyl)-1-[1-(1-methyl-cyclopropanecarbonyl)-piperidine-4-carbonyl]-pyrrolidin-3-yl}-methyl-carbamic acid 2-methyl-cyclopropylmethyl ester] | 8.64
 | CN(C(=O)OCc1ccc(F)cc1)[C@H]1CN(C(=O)C2CCN(C(=O)C3(C)CC3)CC2)C[C@@H]1c1ccc(Cl)c(Cl)c1 (racemic) [Example 95, rac-{(3R,4S)-4-(3,4-Dichloro-phenyl)-1-[1-(1-methyl-cyclopropanecarbonyl)-piperidine-4-carbonyl]-pyrrolidin-3-yl}-methyl-carbamic acid 4-fluoro-benzyl ester] | 8.24
7.27 | CN(C(=O)Nc1ccc(F)cc1)[C@H]1CN(C(=O)C2CCN(C(=O)C3(C)CC3)CC2)C[C@@H]1c1ccc(Cl)cc1 (racemic) [Example 96, rac-1-{(3R,4S)-4-(4-Chloro-phenyl)-1-[1-(1-methyl-cyclopropanecarbonyl)-piperidine-4-carbonyl]-pyrrolidin-3-yl}-3-(4-fluoro-phenyl)-1-methyl-urea] | 
7.51 | CN(CCC1CC1)C(=O)N(C)[C@H]1CN(C(=O)C2CCN(C(=O)C3(C)CC3)CC2)C[C@@H]1c1ccc(Cl)c(Cl)c1 (racemic) [Example 97, rac-1-(2-Cyclopropyl-ethyl)-3-{(3R,4S)-4-(3,4-dichloro-phenyl)-1-[1-(1-methyl-cyclopropanecarbonyl)-piperidine-4-carbonyl]-pyrrolidin-3-yl}-1,3-dimethyl-urea] | 
 | CN(C(=O)OCCC(C)(C)O)[C@H]1CN(C(=O)C2CCN(C(=O)C3(C)CC3)CC2)C[C@@H]1c1ccc(Cl)c(Cl)c1 (racemic) [Example 98, rac-{(3R,4S)-4-(3,4-Dichloro-phenyl)-1-[1-(1-methyl-cyclopropanecarbonyl)-piperidine-4-carbonyl]-pyrrolidin-3-yl}-methyl-carbamic acid 3-hydroxy-3-methyl-butyl ester] | 7.32
 | CN(C(=O)OCC1CCC(F)(F)CC1)[C@H]1CN(C(=O)C2CCN(C(=O)C3(C)CC3)CC2)C[C@@H]1c1ccc(Cl)c(Cl)c1 (racemic) [Example 99, rac {(3R,4S)-4-(3,4-Dichloro-phenyl)-1-[1-(1-methyl-cyclopropanecarbonyl)-piperidine-4-carbonyl]-pyrrolidin-3-yl}-methyl-carbamic acid 4,4-difluoro-cyclohexylmethyl ester] | 8.80
 | CN(C(=O)OC1CCC(F)(F)CC1)[C@H]1CN(C(=O)C2CCN(C(=O)C3(C)CC3)CC2)C[C@@H]1c1ccc(Cl)c(Cl)c1 (racemic) [Example 102, rac-{(3R,4S)-4-(3,4-Dichloro-phenyl)-1-[1-(1-methyl-cyclopropanecarbonyl)-piperidine-4-carbonyl]-pyrrolidin-3-yl}-methyl-carbamic acid 4,4-difluoro-cyclohexyl ester] | 8.40
8.74 | CN(C(=O)OC1CCC(C(F)(F)F)CC1)[C@H]1CN(C(=O)C2CCN(C(=O)C3(C)CC3)CC2)C[C@@H]1c1ccc(Cl)c(Cl)c1 (mixture of isomers) [Example 103, rac-{(3R,4S)-4-(3,4-Dichloro-phenyl)-1-[1-(1-methyl-cyclopropanecarbonyl)-piperidine-4-carbonyl]-pyrrolidin-3-yl}-methyl-carbamic acid 4-trifluoromethyl-cyclohexyl ester] | 
 | CN(C(=O)OCC1CCC(F)(F)C1)[C@H]1CN(C(=O)C2CCN(C(=O)C3(C)CC3)CC2)C[C@@H]1c1ccc(Cl)c(Cl)c1 (mixture of isomers) [Example 111, rac-{(3R,4S)-4-(3,4-Dichloro-phenyl)-1-[1-(1-methyl-cyclopropanecarbonyl)-piperidine-4-carbonyl]-pyrrolidin-3-yl}-methyl-carbamic acid 3,3-difluoro-cyclopentylmethyl ester] | 8.36
 | CN(C(=O)Oc1ccc(F)cc1)[C@@H]1CN(C(=O)C2CCN(c3ccc(C(=O)NC(C)(C)C)cn3)CC2)C[C@H]1c1ccc(Cl)cc1 (racemic) [Example 120, rac-[(3S,4R)-1-(5′-tert-Butylcarbamoyl-3,4,5,6-tetrahydro-2H-[1,2′]bipyridinyl-4-carbonyl)-4-(4-chloro-phenyl)-pyrrolidin-3-yl]-methyl-carbamic acid 4-fluoro-phenyl ester] | 8.80
